Source: patent US20040170581A1, “Cosmetic agents” (priority 2001, published 2004)

Legend:
[1] = system: superoxide anions O2° produced by lipoxygenase; experiment: Anti-free radical test with superoxide anions produced by lipoxygenase; type: biochemical
Protocol: Activity against free radicals was determined by a biochemical test with a reactive oxygen species (ROS), the so-called superoxide anion (O2°). Superoxide anions come from xanthine oxidase and lipoxygenase activities. Xanthine oxidase (XOD) is an enzyme which is activated during oxidative stress and catalyzes the release of O2° during the degradation of hypoxanthine (HX) which is produced in excess in the event of a disturbance to the energy cell metabolism. O2° is then reacted spontaneously or by superoxide dismutase (SOD) to form hydrogen peroxide (H2O2) which in turn is a source of HO radicals which continue reacting in the Fenton reaction. O2° released during an inflammation process is formed from arachidonic acid by the lipoxygenase activity of leucocytes during the leucotriene synthesis (MacCord, M., Chabot Fletcher, M., Breton, J., Marshall, L.A.; Journal of Investigative Dermatology, 1994, Vol. 102, pp. 980-986; Bouclier, M., Hensby C.N.; Annales de Dermatologie & de V{acute over (en)}reologie, 1986, Vol. 113, pp. 1289-1293).
The enzymatic system arachidonic acidlipoxygenase leads during the synthesis of leucotrienes to the formation of O2° which can be determined by luminescence via luminol. Activity against free radicals is greater, the more the luminescence is suppressed.

[2] = system: G6PDH (glucose 6 phosphate dehydrogenase); experiment: G6PDH activity on human dermal fibroblasts; type: cell-based; details: control = 100, 8 assays
From the text: This test was used to determine stimulation of the enzyme G6PDH (glucose 6 phosphate dehydrogenase) which counteracts the ageing process of human skin. G6PDH catalyzes the first step of the “pentose shunt” (also known as hexose monophosphate shunt or HMP shunt). The first step, the transformation of glucose-6-phosphate (G6P) into 6-phosphogluconate (6GP) by G6PDH, needs the coenzyme NADP which in turn is converted into NADPH2. This reduced form of the coenzyme catalyzes many enzymatic reactions and also glutathione recycling and lipid synthesis.
Determination of the G6PDH activity (glucose 6 phosphate dehydrogenase) was carried out by the microprocess described by Garidelli de Quincenet in Annual Dermatol. Venereol. 107 (12), 1163-1170 (1980). The DNA content was determined by the method described by Desaulniers in Toxic. In vitro 12 (4), 409-422 (1998) using in vitro cultures of human dermal fibroblasts. […]

human keratinocytes = experiment: Cell protection against UV-B rays (cellular DNA, LDH release); type: cell-based; details: UV-B 50 mJ/cm^2, conc. 0.01 % w/v
Protocol: UV-B was selected as the stress factor because the rays produce cutaneous inflammation ([…]) by activating enzymes that release arachidonic acid, such as phospholipase A2 (PLA2) for example. […] The influence of UV-B rays on keratinocytes was determined in vitro through the release of cytoplasmatic enzymes, such as LDH (lactate dehydrogenase) for example, which runs parallel to the cell damage and the formation of PGE2. To carry out the test, a fibroblast culture was mixed with foetal calf serum and inoculated with the test substances 2 days later. After incubation for 36 h at 37° C. and a CO2 level of 5% by vol., the nutrient medium was replaced by an electrolyte solution and the fibroblasts were damaged with a particular dose of UV-B (50 mJ/cm^2). The quantity of keratinocytes was determined after trypsination via a cell counter while the LDH concentration was enzymatically determined.

## O=C(O)/C=C/c1ccc(O)c(O)c1 [Caffeic acid]
[1]; concentration 0.00002 % w/v
  % Inhibition: 16%
[1]; concentration 0.0002 % w/v
  % Inhibition: 54%

## CC1=C(/C=C/C(C)=C/C=C/C(C)=C/C(=O)O)C(C)(C)CCC1 [Retinoic acid]
[2]; concentration 0.0003 mM
  Level of G6PDH activity on day 6 (%/against control) Average value: 120 %/against control
[2]; concentration 0.001 mM
  Level of G6PDH activity on day 6 (%/against control) Average value: 128 %/against control

## O=C1O[C@H]([C@@H](O)CO)C(O)=C1O [ascorbic acid]
Human keratinocytes; blank with UV-B = 100
  LDH released: 50 %-rel.
Human keratinocytes; blank without UV-B = 100, blank with UV-B = 29
  Cellular DNA: 48 %-rel.
